Results published in ChEMBL document CHEMBL1127553, “Derivatives of a novel cyclopeptolide. 2. Synthesis, activity against multidrug resistance in CHO and KB cells in vitro, and structure-activity relationships” (1994).

How the values were obtained:
CHO [1] = experiment: The sensitizing capacity for colchicine treatment of parental (PAR)CHO cells at concentration 1.0 (mg/L); assay type: functional, Cricetulus griseus
CHO [2] = experiment: The sensitizing capacity for colchicine treatment of multi drug resistance (MDR) CHO cell at concentration 1.0(mg/L).; assay type: functional, Cricetulus griseus
KB [3] = experiment: The sensitizing capacity of compound for colchicine treatment of multi drug resistance in KB cell was measured at concentration 1.0(mg/L); assay type: functional, Homo sapiens
CHO [4] = experiment: Sensitization of colchicine treated parental (PAR)CHO cells, measured at concentration 0.1(mg/L); assay type: functional, Cricetulus griseus
KB [5] = experiment: The sensitizing capacity of compound for colchicine treatment of multi drug resistance in KB cell was measured at concentration 3.0 (mg/L); assay type: functional, Homo sapiens
CHO [6] = experiment: The sensitizing capacity for colchicine treatment of multi drug resistance(MDR) in CHO cell at concentration 0.1(mg/L).; assay type: functional, Cricetulus griseus

SMILES | Activity (CHO [1]) | Activity (CHO [2]) | Activity (KB [3]) | Activity (CHO [4]) | Activity (KB [5]) | Activity (CHO [6])
CC[C@H](C)[C@H]1C(=O)NCC(=O)N(C)[C@@H](C(C)C)C(=O)N[C@@H](Cc2ccc(OC)cc2)C(=O)O[C@H](C)C(=O)N2CCCC[C@H]2C(=O)N(C)[C@@H](C(C)C)C(=O)N[C@@H](C(C)C)C(=O)N(C)[C@@H](CC(=O)NCCC(C)C)C(=O)N(C)[C@@H]([C@@H](C)CC)C(=O)N1C | 8.1 | 126 | 1 | 5.8 | 1.1 | 3.7
CC[C@@H](C)[C@H]1C(=O)NCC(=O)N(C)[C@@H](C(C)C)C(=O)N[C@@H](Cc2ccc(OC)cc2)C(=O)O[C@@H](C)C(=O)N2CCCC[C@H]2C(=O)N(C)[C@@H](C(C)C)C(=O)N[C@@H](C(C)C)C(=O)N(C)[C@H](CC(=O)NC23CC4CC(CC(C4)C2)C3)C(=O)N(C)[C@@H]([C@@H](C)CC)C(=O)N1C | 8 | 290 | 3.7 | 7.7 | 772 | 92
CC[C@@H](C)[C@H]1C(=O)NCC(=O)N(C)[C@@H](C(C)C)C(=O)N[C@@H](Cc2ccc(OC)cc2)C(=O)O[C@H](C)C(=O)N2CCCC[C@H]2C(=O)N(C)[C@@H](C(C)C)C(=O)N[C@@H](C(C)C)C(=O)N(C)[C@H](CC(=O)N2CCCCC2)C(=O)N(C)[C@@H]([C@@H](C)CC)C(=O)N1C | 10 | 137 | – | 7.1 | – | 3.2
CC[C@H](C)[C@H]1C(=O)NCC(=O)N(C)[C@@H](C(C)C)C(=O)N[C@@H](Cc2ccc(OC)cc2)C(=O)O[C@H](C)C(=O)N2CCCC[C@H]2C(=O)N(C)[C@@H](C(C)C)C(=O)N[C@@H](C(C)C)C(=O)N(C)[C@@H](CC(=O)OCCC(C)C)C(=O)N(C)[C@@H]([C@@H](C)CC)C(=O)N1C | 7.8 | 57 | – | 5.7 | – | 1.3
CC[C@H](C)[C@H]1C(=O)NCC(=O)N(C)[C@@H](C(C)C)C(=O)N[C@@H](Cc2ccc(OC(C)(C)C)cc2)C(=O)O[C@H](C)C(=O)N2CCCC[C@H]2C(=O)N(C)[C@@H](C(C)C)C(=O)N[C@@H](C(C)C)C(=O)N(C)[C@@H](CC(=O)OC(C)(C)C)C(=O)N(C)[C@@H]([C@@H](C)CC)C(=O)N1C | 9 | 300 | – | 6.7 | – | 28
CC[C@@H](C)[C@H]1C(=O)NCC(=O)N(C)[C@@H](C(C)C)C(=O)N[C@@H](Cc2ccc(OC)cc2)C(=O)O[C@H](C)C(=O)N2CCCC[C@H]2C(=O)N(C)[C@@H](C(C)C)C(=O)N[C@@H](C(C)C)C(=O)N(C)[C@H](CC(=O)N(C)C)C(=O)N(C)[C@@H]([C@@H](C)CC)C(=O)N1C | 8.5 | 36 | – | 5.9 | – | 1.2
CC[C@@H](C)[C@H]1C(=O)NCC(=O)N(C)[C@@H](C(C)C)C(=O)N[C@@H](Cc2ccc(OC)cc2)C(=O)O[C@H](C)C(=O)N2CCCC[C@H]2C(=O)N(C)[C@@H](C(C)C)C(=O)N[C@@H](C(C)C)C(=O)N(C)[C@H](CC(=O)N[C@H](CO)C(C)C)C(=O)N(C)[C@@H]([C@@H](C)CC)C(=O)N1C | 9.8 | 144 | – | 7.6 | – | 3.2
CC[C@H](C)[C@H]1C(=O)NCC(=O)N(C)[C@@H](C(C)C)C(=O)N[C@@H](Cc2ccc(OC)cc2)C(=O)O[C@H](C)C(=O)N2CCCC[C@H]2C(=O)N(C)[C@@H](C(C)C)C(=O)N[C@@H](C(C)C)C(=O)N(C)[C@@H](CC(=O)NCc2ccco2)C(=O)N(C)[C@@H]([C@@H](C)CC)C(=O)N1C | 10 | 91 | – | 6.8 | – | 1.6
C=CCNC(=O)C[C@@H]1C(=O)N(C)[C@@H]([C@@H](C)CC)C(=O)N(C)[C@@H]([C@H](C)CC)C(=O)NCC(=O)N(C)[C@@H](C(C)C)C(=O)N[C@@H](Cc2ccc(OC)cc2)C(=O)O[C@H](C)C(=O)N2CCCC[C@H]2C(=O)N(C)[C@@H](C(C)C)C(=O)N[C@@H](C(C)C)C(=O)N1C | 9.3 | 67 | – | 5 | – | 1.1
